Data as given in ChEMBL document CHEMBL4715697, “Synthesis and biological activity of benzamide DNA minor groove binders” (2016).

Experiments:
MDA-MB-231 = assay: Growth inhibition of human MDA-MB-231 cells assessed as cell growth at 100 uM incubated for 48 hrs by sulforhodamine B assay relative to control; assay type: functional; conditions: read-out: Activity
HOP-92 = assay: Growth inhibition of human HOP-92 cells assessed as cell growth at 10 uM incubated for 48 hrs by sulforhodamine B assay relative to control; assay type: functional; conditions: read-out: Activity

SMILES	growth at 100 µM (MDA-MB-231)	growth at 10 µM (HOP-92)
CC(=O)Nc1cc(CO[Si](C)(C)C(C)(C)C)cc(NC(=O)c2ccc(C(=O)Nc3cccc(NC(=O)CCCN(C)C)c3)cc2)c1	96%	
CC(=O)Nc1cc(CCl)cc(NC(=O)c2ccc(C(=O)Nc3cccc(NC(=O)CCCN(C)C)c3)cc2)c1	74%	
CC(=O)Nc1cc(CO)cc(NC(=O)c2ccccc2)c1		96.3%
